# Structures can show the parent of a compound that is named as a salt. Where two headings read alike, the source gives them in different places.
# Experiments:
# [1] = tested on: Bacillus anthracis Sterne; test: microbe, parasite or virus in culture; assay type: cell-based; conditions: for MIC: Bacillus anthracis
# B. anthracis NADs = B. anthracis NADs (Bacillus anthracis, UniProt Q81RP3); assay type: biochemical
# [2] = In vivo toxicity, maximum tolerated dose; conditions: female, BALB/c, mouse, intraperitoneal
# SUM159 = test: In vitro human breast cancer cell growth inhibition; assay type: cell-based; conditions: SUM159, read-out: In Vitro Human Breast Cancer Inhibition (IC50, μM) SUM159
# hNaMNAT-1 = hNaMNAT-1 (Homo sapiens, UniProt Q9HAN9); test: Human NAMNAT inhibition in vitro; assay type: biochemical
# MDA-MB-436 = test: In vitro human breast cancer cell growth inhibition; assay type: cell-based; conditions: MDA-MB-436, read-out: In Vitro Human Breast Cancer Inhibition (IC50, μM) MDA-MB-436
# HCC1937 = test: as above; assay type: cell-based; conditions: HCC1937, read-out: In Vitro Human Breast Cancer Inhibition (IC50, μM) HCC1937
# B. anthracis NADs, sequence (Q81RP3 whole entry, looked up): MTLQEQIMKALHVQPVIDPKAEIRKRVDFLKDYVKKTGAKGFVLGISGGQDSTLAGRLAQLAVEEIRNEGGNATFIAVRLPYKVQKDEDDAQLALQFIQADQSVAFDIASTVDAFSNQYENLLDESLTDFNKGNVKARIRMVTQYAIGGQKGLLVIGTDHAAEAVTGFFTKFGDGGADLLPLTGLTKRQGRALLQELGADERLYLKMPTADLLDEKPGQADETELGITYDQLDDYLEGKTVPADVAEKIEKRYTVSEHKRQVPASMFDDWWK
# hNaMNAT-1, sequence (Q9HAN9 whole entry): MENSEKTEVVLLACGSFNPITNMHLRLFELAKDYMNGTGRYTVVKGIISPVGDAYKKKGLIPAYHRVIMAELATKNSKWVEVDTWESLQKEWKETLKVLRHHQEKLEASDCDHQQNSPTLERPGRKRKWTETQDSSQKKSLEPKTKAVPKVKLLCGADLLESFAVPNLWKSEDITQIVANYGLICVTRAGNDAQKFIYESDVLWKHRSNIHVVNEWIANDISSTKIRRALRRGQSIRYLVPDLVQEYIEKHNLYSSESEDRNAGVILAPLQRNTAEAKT
SMILES,MIC ([1]; read-out: B.a. MIC (μM)) [µM],IC50 (B. anthracis NADs; read-out: IC50) [µM],IC50 (B. anthracis NADs; read-out: NADs IC50) [µM],also measured
O=C(CSc1nc(Nc2ccccc2)nc(N2CCOCC2)n1)Nc1ccc([N+](=O)[O-])cc1O [Compound 5833],15,,,activity against B. anthracis (in words) [1]: good activities
Cc1cc(-c2nnc(CSc3nnc(NC(=O)c4ccc(F)c(Cl)c4)s3)o2)ccc1[N+](=O)[O-] [Compound 5731],> 240,271,270 ± 3,
COc1cccc(NC(=O)Nc2nnc(COc3ccc([N+](=O)[O-])cc3)s2)c1 [Compound 5807],> 240,124,124 ± 5,
"O=C(O)c1cn(C2CC2)c2cc(N3CCNCC3)c(F)cc2c1=O [Cipro, ciprofloxacin hydrochloride, reference compound]",0.5,,,
COc1ccc(CCNC(=O)NCc2cccc(CNC(=O)NCCc3ccc(OC)cc3)c2)cc1 [Compound 5609],> 204,70,70,
O=C(Nc1ccc(/N=N/c2ccccc2)cc1)c1ccc([N+](=O)[O-])cc1 [Compound 5792],> 240,76,76 ± 13,
O=C(Nc1cccc(Oc2ccc3c(c2)C(=O)N(c2ccccc2)C3=O)c1)c1cccc([N+](=O)[O-])c1 [Compound 5799],> 240,175,202 ± 38,
NC(=O)c1ccc(NC(=O)c2ccc(Oc3ccc([N+](=O)[O-])cc3Cl)cc2)cc1 [Compound 5821],> 240,104,130 ± 37,
O=C(CCC(=O)Nc1ccc(Nc2ccccc2)cc1)Nc1ccc(Nc2ccccc2)cc1 [Compound 5604],> 222,141,256 ± 210,
O=C(Nc1cccc(C(=O)Nc2cccc3ccccc23)c1)c1cccc([N+](=O)[O-])c1 [Compound 5802],> 240,225,225 ± 36,
O=C(Nc1ccc(S(=O)(=O)Nc2ccc(Cl)c(Cl)c2)cc1)Nc1cccc([N+](=O)[O-])c1 [Compound 6333],,,,MTD [2]: 250 mg/kg
Cc1c(NC(=O)c2ccc(N3CCCC3)c([N+](=O)[O-])c2)cccc1-c1nc2ccccc2[nH]1 [Compound 5830],> 240,198,193 ± 8,
Cc1cc(C)c2oc(-c3cccc(NC(=O)/C=C/c4cccc([N+](=O)[O-])c4)c3)nc2c1 [Compound 5806],> 240,67.8,68 ± 5,
N/C(=N\OC(=O)c1ccc(Cl)c(Cl)c1)c1cccc(CSc2ccccn2)c1 [Compound 5775],> 240,290,290,
CCOC(=O)C1=C(Nc2cccc3ccccc23)S/C(=C\c2ccc([N+](=O)[O-])cc2)C1=O [Compound 5597],> 224,86.1,86 ± 33,
O=C(Nc1ccccc1)Nc1ccc(NC(=O)c2ccc(NC(=O)Nc3ccccc3)cc2)cc1 [Compound 5793],> 240,78.8,79 ± 38,
O=C(Cn1cc(/C=C/c2[nH]c(=O)[nH]c(=O)c2[N+](=O)[O-])c2ccccc21)Nc1ccc(F)cc1 [Compound 5615],,55.4,55.4,"MIC ([1]; 5 h, read-out: MIC100 (μM)): > 223 µM"
O=C(NC(=S)Nc1cc(-c2nc3ccccc3[nH]2)ccc1Cl)c1ccccc1[N+](=O)[O-] [Compound 5831],> 240,243,243 ± 38,
Nc1ncnc(Nc2ccc(Cl)cc2C(=O)c2ccccc2Cl)c1[N+](=O)[O-] [Compound 5616],> 247,208,231 ± 36,
O=C(Nc1cccc(/N=C/c2cc([N+](=O)[O-])ccc2O)c1)c1ccc(Cl)cc1Cl [Compound 5691],> 232,106,106 ± 2,
Cc1onc(-c2ccccc2)c1NC(=O)Nc1ccc(Oc2ncnc3cc(Cl)ccc23)nc1 [Compound 5763],> 240,232,232 ± 55,
CCOc1ccc(NS(=O)(=O)c2ccc(NC(=O)CCC(=O)c3ccccc3)cc2)cc1 [Compound 6484],,,,MTD [2]: > 500 mg/kg

SMILES,MIC ([1]; read-out: B.a. MIC (μM)) [µM],IC50 (B. anthracis NADs; read-out: IC50) [µM],IC50 (B. anthracis NADs; read-out: NADs IC50) [µM],also measured
Nc1c(C(=O)c2ccc([N+](=O)[O-])cc2)sc(Nc2ccccc2)c1-c1nc2ccccc2[nH]1 [Compound 5768],> 240,170,170 ± 48,
CCc1ccc(S(=O)(=O)Nc2c([N+](=O)[O-])ccc3ccccc23)cc1 [Compound 5599],,,,"MIC ([1]; 5 h, read-out: MIC100 (μM)): 3.75 µM"
O=C(Nc1ccc(S(=O)(=O)Nc2ncccn2)cc1)Nc1ccc(Cl)c(Cl)c1 [Compound 5617],15,,,activity against B. anthracis (in words) [1]: good activities
O=[N+]([O-])c1ccc(O)c(/C=N/c2cccc(O)c2)c1 [Compound 5660],> 387,22.5,22.5,
COc1ccccc1NC(=O)NC(=O)c1ccc(-c2csnn2)cc1 [Compound 5737],> 240,235,235 ± 71,
O=C(Nc1ccc2oc(-c3cc(Br)ccc3Cl)nc2c1)c1cccc([N+](=O)[O-])c1 [Compound 5798],,61.8,61.8,"MIC ([1]; 5 h, read-out: MIC100 (μM)): > 240 µM"
O=C(COC(=O)c1ccc(NC(=O)c2ccc([N+](=O)[O-])cc2)cc1)c1ccc(F)cc1 [Compound 5606],> 237,141,176 ± 49,
NC(=O)c1ccc(/N=C/c2cc([N+](=O)[O-])ccc2Cl)cc1 [Compound 5679],> 329,262,262 ± 8,
O=C(Nc1ccc(S(=O)(=O)Nc2ccccc2C(F)(F)F)cc1)Nc1cccc([N+](=O)[O-])c1 [Compound 6572],,,,IC50 (SUM159): 10 µM; IC50 (hNaMNAT-1): > 600 µM; IC50 (MDA-MB-436): 35 µM; IC50 (HCC1937): 35 µM
O=C(Nc1cccc(/N=C/c2cc([N+](=O)[O-])ccc2O)c1)c1cccc(Br)c1 [Compound 5684],> 227,99.5,99 ± 12,
COc1ccccc1NC(=O)COc1ccc(/C=C(/C#N)c2nc3ccccc3[nH]2)cc1 [Compound 5822],> 240,107,178 ± 102,
Cc1ccc(-c2nc3cc(Cl)ccc3o2)cc1CC(=O)c1cc([N+](=O)[O-])c(C)c([N+](=O)[O-])c1 [Compound 5588],> 240,78.5,84 ± 35,"MIC ([1]; 5 h, read-out: MIC100 (μM)): > 215 µM"
COc1cccc(NC(=O)Nc2ccc(S(=O)(=O)Nc3ccc(Cl)c(Cl)c3)cc2)c1 [Compound 6325],,,,MTD [2]: 50 mg/kg
O=C1C=C(Nc2ccccc2C(=O)O)C(=O)C=C1Nc1ccccc1C(=O)O [Compound 5589],> 264,137,118 ± 67,
COc1ccc(Oc2ccc([N+](=O)[O-])cc2C(=O)Nc2ccc(S(N)(=O)=O)cc2)cc1 [Compound 5724],> 240,291,291 ± 29,
O=C(Nc1ccc(S(=O)(=O)Nc2cccc(C(F)(F)F)c2)cc1)Nc1cccc(Cl)c1 [Compound 5991],,,,MTD [2]: 10 mg/kg
O=C(Nc1ccc([N+](=O)[O-])cc1)c1ccc(-c2nnc(-c3ccccc3)o2)cc1 [Compound 5605],> 259,146,146 ± 0.2,"MIC ([1]; 5 h, read-out: MIC100 (μM)): > 259 µM"
COc1ccc(NC(=O)Nc2cccc(NC(=O)Nc3ccc(OC)cc3)c2F)cc1 [Compound 5707],> 240,253,253 ± 65,
COc1ccc(NC(=O)Nc2ccc(Oc3ncnc4cc(Cl)ccc34)nc2)cc1OC1CCCC1 [Compound 5764],> 240,97.2,97 ± 55,
O=[N+]([O-])c1ccc(-c2cnc(N/N=C/c3cccc([N+](=O)[O-])c3)nc2)cc1 [Compound 5591],> 274,160,160 ± 57,
O=C(Nc1ccc(Cc2ccc(NC(=O)c3ccc4c(c3)OCO4)cc2)cc1)c1ccc2c(c1)OCO2 [Compound 5818],,65.7,65.7,"MIC ([1]; 5 h, read-out: MIC100 (μM)): > 240 µM"
Cc1ccc(C(=O)Nc2cccc(-c3nc4ccccc4[nH]3)c2)cc1 [Compound 5710],> 240,128,189 ± 86,
